Results from US9738655B2, “Tetrahydroisoquinolines containing substituted azoles as factor XIa inhibitors” (BRISTOL-MYERS SQUIBB COMPANY, priority 2013, dated 2017).
Structures can show the parent of a compound that is named as a salt. Where two headings read alike, the source gives them in different places.

Assays:
[1] = target: purified human plasma kallikrein (Homo sapiens (Human), UniProt P03952); assay: Plasma kallikrein enzyme inhibition assay (chromogenic substrate S-2302); type: biochemical
purified human plasma kallikrein, sequence (P03952 391-638): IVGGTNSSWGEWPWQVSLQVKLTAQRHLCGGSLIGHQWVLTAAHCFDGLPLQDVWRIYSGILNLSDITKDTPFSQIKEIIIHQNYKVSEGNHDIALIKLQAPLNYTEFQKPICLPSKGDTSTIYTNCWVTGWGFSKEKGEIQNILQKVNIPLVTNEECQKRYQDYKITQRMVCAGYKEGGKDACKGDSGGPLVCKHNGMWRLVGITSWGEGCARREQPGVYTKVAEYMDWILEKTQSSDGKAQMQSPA
purified human plasma kallikrein, sequence (P03952 20-390 partner): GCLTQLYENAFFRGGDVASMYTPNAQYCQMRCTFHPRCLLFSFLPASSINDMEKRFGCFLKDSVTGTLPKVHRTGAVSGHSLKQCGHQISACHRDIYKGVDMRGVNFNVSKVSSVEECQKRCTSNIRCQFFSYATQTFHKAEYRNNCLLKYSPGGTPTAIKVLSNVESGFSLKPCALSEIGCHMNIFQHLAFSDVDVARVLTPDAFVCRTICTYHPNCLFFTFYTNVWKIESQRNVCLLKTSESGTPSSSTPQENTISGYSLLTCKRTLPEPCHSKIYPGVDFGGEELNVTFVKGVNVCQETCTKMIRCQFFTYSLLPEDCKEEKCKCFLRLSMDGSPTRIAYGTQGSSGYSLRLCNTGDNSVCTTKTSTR
Protocol: The effectiveness of compounds of the present invention as inhibitors of the coagulation Factors XIa, VIIa, IXa, Xa, XIIa, plasma kallikrein or thrombin, can be determined using a relevant purified serine protease, respectively, and an appropriate synthetic substrate. The rate of hydrolysis of the chromogenic or fluorogenic substrate by the relevant serine protease was measured both in the absence and presence of compounds of the present invention. […] A decrease in the rate of absorbance or fluorescence change in the presence of inhibitor is indicative of enzyme inhibition. […] The results of this assay are expressed as the inhibitory constant, Ki.
Values of Ki were determined by allowing the protease to react with the substrate in the presence of the inhibitor.
The following relationships were used to calculate Ki values: (Vmax*S)/(Km+S); (vo−vs)/vs=I/(Ki(1+S/Km)) for a competitive inhibitor with one binding site; or vs/vo=A+((B−A)/1+((IC50/(I)n))); and Ki−IC50/((1+S/Km) for a competitive inhibitor where:

[2] = target: purified human Factor XIa (Homo sapiens (Human), UniProt P03951); assay: Factor XIa enzyme inhibition assay (chromogenic substrate S-2366)
purified human Factor XIa, sequence (P03951 388-625): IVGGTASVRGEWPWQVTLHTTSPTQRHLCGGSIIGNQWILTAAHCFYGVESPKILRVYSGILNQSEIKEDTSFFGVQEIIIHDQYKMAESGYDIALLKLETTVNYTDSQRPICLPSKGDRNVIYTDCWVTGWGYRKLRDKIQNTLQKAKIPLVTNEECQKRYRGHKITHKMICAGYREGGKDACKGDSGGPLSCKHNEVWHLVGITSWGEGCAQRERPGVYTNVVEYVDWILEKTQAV
purified human Factor XIa, sequence (P03951 19-387 partner): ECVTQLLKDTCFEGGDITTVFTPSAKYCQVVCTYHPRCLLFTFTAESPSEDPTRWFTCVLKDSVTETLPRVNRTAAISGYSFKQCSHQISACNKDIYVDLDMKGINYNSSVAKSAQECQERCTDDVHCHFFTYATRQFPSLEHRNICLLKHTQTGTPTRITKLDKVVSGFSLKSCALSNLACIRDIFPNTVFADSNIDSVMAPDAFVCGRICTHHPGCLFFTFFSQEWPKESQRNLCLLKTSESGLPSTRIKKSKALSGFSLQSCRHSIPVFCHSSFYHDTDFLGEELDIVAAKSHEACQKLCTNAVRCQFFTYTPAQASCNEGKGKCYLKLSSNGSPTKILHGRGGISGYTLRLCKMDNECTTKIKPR

[3] = measured at 25° C. (no asterisk)
[4] = read-out: Factor XIa Ki, measured at 25° C.
[5] = measured at 25° C. (no asterisk), TFA salt
[6] = read-out: Factor XIa Ki, measured at 25° C., TFA salt

Structure (SMILES) | Ki [1, 3] | Ki [2, 4] | also measured
CN1CCN(c2cccc3c2CCN(C(=O)C2CC(c4cccc(Cl)c4F)=NO2)C3C(=O)Nc2ccc(C(=O)O)cc2)CC1=O (single isomer, unassigned) [Example 280, 4-(2-(3-(3-chloro-2-fluorophenyl)-4,5-dihydroisoxazole-5-carbonyl)-5-(4-methyl-3-oxopiperazin-1-yl)-1,2,3,4-tetrahydroisoquinoline-1-carboxamido)benzoic acid, TFA salt] |  |  | Ki [1, 5]: 283 nM; Ki [2, 6]: 36.5 nM
COC1CCN(c2cccc3c2CCN(C(=O)C2CC(c4c(C(F)(F)F)ccc(Cl)c4F)=NO2)C3C(=O)Nc2ccc(C(=O)O)cc2)CC1 (stereo not drawn) [Example 297, 4-(2-(3-(3-chloro-2-fluoro-6-(trifluoromethyl)phenyl)-4,5-dihydroisoxazole-5-carbonyl)-5-(4-methoxypiperidin-1-yl)-1,2,3,4-tetrahydroisoquinoline-1-carboxamido)benzoic acid, TFA salt] |  |  | Ki [1, 5]: 1280 nM; Ki [2, 6]: 46.3 nM
CC(C)(O)C1CCN(c2cccc3c2CCN(C(=O)C2CC(c4cccc(Cl)c4F)=NO2)C3C(=O)Nc2ccc(C(=O)O)cc2)CC1 (stereo not drawn) [Example 263, 4-(2-(3-(3-chloro-2-fluorophenyl)-4,5-dihydroisoxazole-5-carbonyl)-5-(4-(2-hydroxypropan-2-yl)piperidin-1-yl)-1,2,3,4-tetrahydroisoquinoline-1-carboxamido)benzoic acid, TFA salt] |  |  | Ki [1, 5]: 68.1 nM; Ki [2, 6]: 11.5 nM
COc1ccc(NC(=O)C2c3cccc(N4CCC(N(C)C)CC4)c3CCN2C(=O)c2cnn(-c3cccc(Cl)c3F)c2)cc1 (stereo not drawn) [Example 97, 2-(1-(3-chloro-2-fluorophenyl)-1H-pyrazole-4-carbonyl)-5-(4-(dimethylamino)piperidin-1-yl)-N-(4-methoxyphenyl)-1,2,3,4-tetrahydroisoquinoline-1-carboxamide, TFA salt] | 21.7 nM | 9.13 nM | 
COC1CCN(c2cccc3c2CCN(C(=O)c2cnn(-c4ccc5nonc5c4)c2)C3C(=O)Nc2ccc(C(=O)O)cc2)CC1 (stereo not drawn) [Example 331, 4-(2-(1-(benzo[c][1,2,5]oxadiazol-5-yl)-1H-pyrazole-4-carbonyl)-5-(4-methoxypiperidin-1-yl)-1,2,3,4-tetrahydroisoquinoline-1-carboxamido)benzoic acid] |  | 7050 nM | Ki ([1]; measured at 37° C. (*)): > 6000 nM
COC1CCN(c2cccc3c2CCN(C(=O)[C@H]2CC(c4cccc(Cl)c4F)=NO2)[C@H]3C(=O)Nc2cccnc2)CC1 (single isomer, unassigned) [Example 242, TFA salt] |  |  | Ki ([1]; measured at 37° C. (*)): 1230 nM; Ki [2]: 188 nM
O=C(O)c1ccc(NC(=O)C2c3cccc(-c4cncc(F)c4)c3CCN2C(=O)c2cn(-c3cccc(Cl)c3F)nn2)cc1 (stereo not drawn) [Example 35, 4-(2-(1-(3-chloro-2-fluorophenyl)-1H-1,2,3-triazole-4-carbonyl)-5-(5-fluoropyridin-3-yl)-1.2,3,4-tetrahydroisoquinoline-1-carboxamido)benzoic acid, TFA salt] | 22.9 nM | < 5 nM | 
COC1CCN(c2cccc3c2CCN(C(=O)c2cnn(-c4cccc(Cl)c4F)c2N)[C@@H]3C(=O)Nc2ccc(C(=O)O)cc2)CC1 [Example 285, (S)-4-(2-(5-amino-1-(3-chloro-2-fluorophenyl)-1H-pyrazole-4-carbonyl)-5-(4-methoxypiperidin-1-yl)-1,2,3,4-tetrahydroisoquinoline-1-carboxamido)benzoic acid, TFA salt] | 19.8 nM | < 5 nM | 
O=C(Nc1ccc(-c2cc[nH]n2)cc1)C1c2cccc(-c3cncnc3)c2CCN1C(=O)c1cn(-c2cccc(Cl)c2F)nn1 (stereo not drawn) [Example 127, N-(4-(1H-pyrazol-3-yl)phenyl)-2-(1-(3-chloro-2-fluorophenyl)-1H-1,2,3-triazole-4-carbonyl)-5-(pyrimidin-5-yl)-1,2,3,4-tetrahydroisoquinoline-1-carboxamide, TFA salt] |  | < 5 nM | Ki ([1]; measured at 37° C. (*)): 196 nM
O=C(O)c1ccc(NC(=O)C2c3cccc(-c4cccnc4)c3CCN2C(=O)c2cn(-c3cccc(Cl)c3F)nn2)cc1 (stereo not drawn) [Example 33, 4-(2-(1-(3-chloro-2-fluorophenyl)-1H-1,2,3-triazole-4-carbonyl)-5-(pyridin-3-yl)-1,2,3,4-tetrahydroisoquinoline-1-carboxamido)benzoic acid, TFA salt] | 9.54 nM | < 5 nM | 
O=C(Nc1ccccc1)C1c2cccc(Br)c2CCN1C(=O)c1cn(-c2cccc(Cl)c2F)nn1 (stereo not drawn) [Example 119, 5-Bromo-2-(1-(3-chloro-2-fluorophenyl)-1H-1,2,3-triazole-4-carbonyl)-N-phenyl-1,2,3,4-tetrahydroisoquinoline-1-carboxamide] |  | 4440 nM | Ki ([1]; measured at 37° C. (*)): 1100 nM
COC(C)(C)C1CCN(c2cccc3c2CCN(C(=O)c2cnn(-c4cccc(Cl)c4F)c2)C3C(=O)Nc2ccc(C(=O)O)cc2)CC1 (stereo not drawn) [Example 224, 4-(2-(1-(3-Chloro-2-fluorophenyl)-1H-pyrazole-4-carbonyl)-5-(4-(2-methoxypropan-2-yl)piperidin-1-yl)-1,2,3,4-tetrahydroisoquinoline-1-carboxamido)benzoic acid, TFA salt] | 92 nM | < 5 nM | 
O=C(O)c1ccc(NC(=O)C2c3cccc(N4CCC(N5CCCC5=O)CC4)c3CCN2C(=O)c2cnn(-c3cccc(Cl)c3F)c2)cc1 (stereo not drawn) [Example 74, 4-(2-(1-(3-chloro-2-fluorophenyl)-1H-pyrazole-4-carbonyl)-5-(4-(2-oxopyrrolidin-1-yl)piperidin-1-yl)-1,2,3,4-tetrahydroisoquinoline-1-carboxamido)benzoic acid, TFA salt] | 27.6 nM | < 5 nM | 

Now from value to molecule, other results behind:

Ki [1, 3] | Ki [2, 4] | Structure (SMILES) | also measured
447 nM | < 5 nM | O=C(O)c1ccc(NC(=O)C2c3cccc(N4CCC(N5CCCC5=O)CC4)c3CCN2C(=O)[C@H]2CC(c3cccc(Cl)c3F)=NO2)cc1 (single isomer, unassigned) [Example 208, TFA salt] | 
9.56 nM | 179 nM | Cc1nn(C)c2c1C(C(=O)Nc1ccc(C(=O)O)cc1)N(C(=O)c1cn(-c3cccc(Cl)c3F)nn1)CC2 (stereo not drawn) [Example 221, 4-(5-(1-(3-Chloro-2-fluorophenyl)-1H-1,2,3-triazole-4-carbonyl)-1,3-dimethyl-4,5,6,7-tetrahydro-1H-pyrazolo[4,3-c]pyridine-4-carboxamido)benzoic acid] | 
 | < 5 nM | O=C(O)c1ccc(NC(=O)C2c3cccc(-n4cnnc4)c3CCN2C(=O)c2cn(-c3cccc(Cl)c3F)nn2)cc1 (stereo not drawn) [Example 249, 4-(2-(1-(3-Chloro-2-fluorophenyl)-1H-1,2,3-triazole-4-carbonyl)-5-(4H-1,2,4-triazol-4-yl)-1,2,3,4-tetrahydroisoquinoline-1-carboxamido)benzoic acid, TFA salt] | Ki ([1]; measured at 37° C. (*)): 20.4 nM
 | < 5 nM | O=C(O)c1ccc2cc(NC(=O)C3c4cccc(-c5cncnc5)c4CCN3C(=O)c3cn(-c4cccc(Cl)c4F)nn3)ccc2n1 (stereo not drawn) [Example 129, 6-(2-(1-(3-chloro-2-fluorophenyl)-1H-1,2,3-triazole-4-carbonyl)-5-(pyrimidin-5-yl)-1,2,3,4-tetrahydroisoquinoline-1-carboxamido) quinoline-2-carboxylic acid, TFA salt] | Ki ([1]; measured at 37° C. (*)): 34 nM
19.9 nM |  | COc1ncc(-c2cccc3c2CCN(C(=O)c2cn(-c4cccc(Cl)c4F)nn2)C3C(=O)Nc2ccc(C(=O)O)cc2)cn1 (stereo not drawn) [Example 31, 4-(2-(1-(3-chloro-2-fluorophenyl)-1H-1,2,3-triazole-4-carbonyl)-5-(2-methoxypyrimidin-5-yl)-1,2,3,4-tetrahydroisoquinoline-1-carboxamido)benzoic acid] | Ki [2]: < 5 nM
34 nM | 17.9 nM | CN(C)C1CCN(c2cccc3c2CCN(C(=O)c2cn(-c4cccc(Cl)c4F)nn2)[C@H]3C(=O)Nc2ccc(-c3cn[nH]c3)cc2)CC1 [Example 103, (R)-N-(4-(1H-Pyrazol-4-yl)phenyl)-2-(1-(3-chloro-2-fluorophenyl)-1H-1,2,3-triazole-4-carbonyl)-5-(4-(dimethylamino)piperidin-1-yl)-1,2,3,4-tetrahydroisoquinoline-1-carboxamide, bis-TFA salt] | 
 | 16.8 nM | COC1CCN(c2cccc3c2CCN(C(=O)c2cn(-c4cccc(Cl)c4F)nn2)[C@@H]3C(=O)Nc2ccc(CO)cc2)CC1 [Example 122, (S)-2-(1-(3-Chloro-2-fluorophenyl)-1H-1,2,3-triazole-4-carbonyl)-N-(4-(hydroxymethyl)phenyl)-5-(4-methoxypiperidin-1-yl)-1,2,3,4-tetrahydroisoquinoline-1-carboxamide] | Ki ([1]; measured at 37° C. (*)): 99.8 nM
122 nM | 49.5 nM | CN1CCN(c2cccc3c2CCN(C(=O)c2cc(-c4cccc(Cl)c4)no2)C3C(=O)Nc2ccc(C(=O)O)cc2)CC1 (stereo not drawn) [Example 198, 4-(2-(3-(3-chlorophenyl)isoxazole-5-carbonyl)-5-(4-methylpiperazin-1-yl)-1,2,3,4-tetrahydroisoquinoline-1-carboxamido)benzoic acid, 2 TFA salt] | 
5.89 nM | < 5 nM | CN(C)C(=O)C1CCN(c2cccc3c2CCN(C(=O)c2cnn(-c4cccc(Cl)c4F)c2)[C@@H]3C(=O)Nc2ccc(C(=O)O)cc2)CC1 (single isomer, unassigned) [Example 61, TFA salt] | 
452 nM |  | CN(C)C1CCN(c2cccc3c2CCN(C(=O)c2cn(-c4cccc(Cl)c4F)nn2)[C@H]3C(=O)Nc2ccc(C(=O)O)cc2)CC1 [Example 48, (R)-4-(2-(1-(3-chloro-2-fluorophenyl)-1H-1,2,3-triazole-4-carbonyl)-5-(4-(dimethylamino)piperidin-1-yl)-1,2,3,4-tetrahydroisoquinoline-1-carboxamido)benzoic acid, bis-TFA salt] | Ki [2]: 89.6 nM
11.4 nM | < 5 nM | O=C(O)c1ccc(NC(=O)[C@@H]2c3cccc(N4CCOCC4)c3CCN2C(=O)c2cnn(-c3cccc(Cl)c3F)c2)cc1 [Example 89, (S)-4-(2-(1-(3-Chloro-2-fluorophenyl)-1H-pyrazole-4-carbonyl)-5-morpholino-1,2,3,4-tetrahydroisoquinoline-1-carboxamido)benzoic acid, TFA salt] | 
